From patent US20080103158A1, “METHODS FOR TREATING DELAYING THE PROGRESSION OF ALZHEIMER'S DISEASE WITH HETEROCYCLIC COMPOUNDS” (ZENYAKU KOGYO KABUSHIKI KAISHA, priority 2006, published 2008) come the findings set out here.

The structures appear in SMILES notation.

Data set [1] in a line: preclinical study (safety).
Data set [2] concerns amyloid β deposition in the hippocampus. The experiment in a line: Amyloid β deposition inhibitory activity: amyloid β immunohistochemistry of the hippocampus in senescene accelerated mice (SAMP8). The format is in vivo. The method, then:
Senescene accelerated mice (SAMP8) (male, 8 months old at the beginning of the study) were used for experiment. Approximately 0.1 mg/kg/day of Compound 1 was given in drinking water. Eight weeks after the dosing, the mouse brain was removed, Methacarn-fixed (methanol:chloroform:acetic acid=6:3:1), and paraffin-embedded. Then, sections of 8 μm in thickness were prepared using a microtome.
The sections were immunostained with streptavidin-biotin using a VECTASTATIN ABC kit. After one hour of incubation in 10% normal goat serum, the anti-amyloid β (Aβ) antibody was diluted with PBS to ten fold and incubated at 4° C. overnight. The following day, PBS rinsing, 1.5 hours of incubation with biotinylated anti-rabbit secondary antibody, PBS rinsing, and 1.5 hours of incubation with peroxidase-labeled streptavidin were conducted. The immunoreaction was visualized with DAB and specimens were prepared.
Immunoreactive Aβ-like granules in the hippocampus were counted under the microscope. The Aβ-like immunoreactive granule was observed as brown deposits in the hippocampus. The count was made for one section per individual.

For the compound `O=C1N=C2C=CC=CN2C12Cc1ccccc1C2` [Compound 1, spiro[imidazo[1,2-a]pyridin-2(3H)-one-3,2′-indan]], in data set [1], the “safety in the preclinical study” value is given as “highly safe”. In addition, the “amyloid β deposition (overall conclusion)” value in data set [2] (hippocampus immunohistochemistry) was “inhibits amyloid β deposition”. For the same compound, the “number of amyloid β-immunoreactive granules” value in data set [2] (hippocampus, one section per individual, oral 0.002, 0.01 and 0.1 mg/kg in drinking water for 2 months, FIG. 2) was “significantly (*) decreased”. Also, in data set [2] (male, 8 months old, Compound 1 in drinking water at oral dosage of 0.002, 0.01 and 0.1 mg/kg/day for 2 months, vs tap water), the “amyloid β-like immunoreactivity in the hippocampus” value is “reduced”.

`COc1ccc(CC2(Cc3ccc(OC)cc3)C(=O)N=C3C=CC=CN32)cc1` [Compound 20, 3,3-bis(4-methoxybenzyl)imidazo[1,2-a]pyridin-2(3H)-one] returned a melting point of 248 to 251 °C.

For the compound `C=CCC1(CC=C)C(=O)N=C2C=CC=CN21` [Compound 24, 3,3-diallylimidazo[1,2-a]pyridin-2(3H)-one], the melting point is 64 to 66 °C.

For `O=C1N=C2C=CC=CN2C12Cc1cccc3cccc(c13)C2` [Compound 27, spiro[imidazo[1,2-a]pyridin-2(3H)-one-3,2′-[2,3]dihydrophenarene]], the melting point is 262 °C (dec.).

The compound `O=C1N=C2C(OC3CCCC3)=CC=CN2C1(Cc1ccccc1)Cc1ccccc1` [Compound 12, 3,3-dibenzyl-8-cyclopentyloxyimidazo[1,2-a]pyridin-2(3H)-one] came in with a melting point of 268 to 269 °C.

Consider `O=C1N=C2CCCCN2C12Cc1cc3ccccc3cc1C2` [Compound 76, spiro[5,6,7,8-tetrahydroimidazo[1,2-a]pyridin-2(3H)-one-3,2′-benzo[f]indan]], for which the melting point was 252.5 °C (dec.).

For `CN(C)c1ccc(CC2(Cc3ccc(N(C)C)cc3)C(=O)N=C3C=CC=CN32)cc1` [Compound 18, 3,3-bis(4-dimethylaminobenzyl)imidazo[1,2-a]pyridin-2(3H)-one], the melting point is over 300 °C.

Consider `N#Cc1cccc2c1CC1(C2)C(=O)N=C2C=CC=CN21` (centres unmarked) [Compound 59, spiro[imidazo[1,2-a]pyridin-2(3H)-one-3,2′-(4′-cyanoindan)]], for which the melting point was 247.7 °C (dec.).

As for `O=C1N=C2C=CC=CN2C1(Cc1ccc(Cl)cc1)Cc1ccc(Cl)cc1` [Compound 78, 3,3-bis(4-chlorobenzyl)imidazo[1,2-a]pyridin-2(3H)-one], the melting point was 293 to 296 °C.

In turn, `O=C1N=C2C(O)=CC=CN2C1(Cc1ccccc1)Cc1ccccc1` [Compound 36, 3,3-dibenzyl-8-hydroxyimidazo[1,2-a]pyridin-2(3H)-one] registered a melting point of 283 to 285 °C.

`C#CCC1(CC#C)C(=O)N=C2C=CC=CN21` [Compound 35, 3,3-di(2-propinyl)imidazo[1,2-a]pyridin-2(3H)-one] returned a melting point of 172 to 175 °C.

In turn, `O=C1N=C2N=CC=CN2C1(Cc1ccccc1)Cc1ccccc1` [Compound 45, 3,3-dibenzylimidazo[1,2-a]pyrimidin-2(3H)-one] registered a melting point of over 300 °C.

Consider `O=C1N=C2N=CC=CN2C12Cc1ccccc1C2` [Compound 63, spiro[imidazo[1,2-a]pyrimidin-2(3H)-one-3,2′-indan]], for which the melting point is 195.5 °C (dec.).

As to `CCCCC1(CCCC)C(=O)N=C2CCCCN21` [Compound 73, 3,3-dibutyl-5,6,7,8-tetrahydroimidazo[1,2-a]pyridin-2(3H)-one], the melting point was 35 to 40 °C.

As to `O=C1N=C2C(Cl)=CC(C(F)(F)F)=CN2C1(Cc1ccccc1)Cc1ccccc1` [Compound 14, 3,3-dibenzyl-8-chloro-6-trifluoromethylimidazo[1,2-a]pyridin-2(3H)-one], the melting point fell in the range of 234 to 236 °C.

The compound `O=C1N=C2C=CC=CN2C1(Cc1ccc(F)cc1)Cc1ccc(F)cc1` [Compound 17, 3,3-bis(4-fluorobenzyl)imidazo[1,2-a]pyridin-2(3H)-one] showed a melting point of 290 to 292 °C.

`O=C1N=C2C=CC=CN2C1(Cc1ccc([N+](=O)[O-])cc1)Cc1ccc([N+](=O)[O-])cc1` registered a melting point of over 300 °C.

Turning to `O=C1N=C2SC=CN2C1(Cc1cccs1)Cc1cccs1` [Compound 49, 5,5-bis(2-thienylmethyl)imidazo[2,1-b]thiazol-6(5H)-one], the melting point is 286 °C (dec.).

For the compound `CC1(C)C(=O)N=C2C=CC=CN21` [Compound 33, 3,3-dimethylimidazo[1,2-a]pyridin-2(3H)-one], the melting point fell in the range of 200 to 202 °C.

Compound `O=C1N=C2c3ccccc3C=CN2C12CCCC2` [Compound 75, spiro[imidazo[2,1-a]isoquinolin-2(3H)-one-3,1′-cyclopentane]] showed a melting point of 164.5 to 167.5 °C.

In the case of `O=C1N=C2CCCCN2C12Cc1ccccc1C2` [Compound 77, spiro[5,6,7,8-tetrahydroimidazo[1,2-a]pyridin-2(3H)-one-3,2′-indan]], the melting point is 276.5 °C (dec.).

For the compound `O=C1N=C2C=CC=CN2C1(Cc1cccs1)Cc1cccs1` [Compound 30, 3,3-bis(2-thienylmethyl)imidazo[1,2-a]pyridin-2(3H)-one], the melting point was 289.5 °C (dec.).

`O=C1N=C2SCCN2C1(Cc1ccccc1)Cc1ccccc1` [Compound 51, 5,5-dibenzyl-2,3-dihydroimidazo[2,1-b]thiazol-6(5H)-one] showed a melting point of 233 to 236 °C.

`O=C1N=C2C=CC=CN2C1(Cc1ccc(O)cc1)Cc1ccc(O)cc1` [Compound 23, 3,3-bis(4-hydroxybenzyl)imidazo[1,2-a]pyridin-2(3H)-one] displayed a melting point of 276.5 to 277.5 °C.

Turning to `O=C1N=C2C=CC=CN2C1(CCCc1ccccc1)CCCc1ccccc1` [Compound 26, 3,3-bis(3-phenyl-1-propyl)imidazo[1,2-a]pyridin-2(3H)-one], the melting point lay within 227 to 228 °C.

For `O=C1N=C2C=CC=CN2C12Cc1cc3nsnc3cc1C2` [Compound 61, spiro[imidazo[1,2-a]pyridin-2(3H)-one-3,2′-((1,2,5-thiadiazo)[4,5-c]indan)]], the melting point was in the range of 86 to 88 °C.

Broadly, the melting point is the temperature of the solid-liquid transition.
